Molecular target: T1, DNA topoisomerase 1 (Homo sapiens, UniProt P11387)
T1 sequence (P11387 whole entry): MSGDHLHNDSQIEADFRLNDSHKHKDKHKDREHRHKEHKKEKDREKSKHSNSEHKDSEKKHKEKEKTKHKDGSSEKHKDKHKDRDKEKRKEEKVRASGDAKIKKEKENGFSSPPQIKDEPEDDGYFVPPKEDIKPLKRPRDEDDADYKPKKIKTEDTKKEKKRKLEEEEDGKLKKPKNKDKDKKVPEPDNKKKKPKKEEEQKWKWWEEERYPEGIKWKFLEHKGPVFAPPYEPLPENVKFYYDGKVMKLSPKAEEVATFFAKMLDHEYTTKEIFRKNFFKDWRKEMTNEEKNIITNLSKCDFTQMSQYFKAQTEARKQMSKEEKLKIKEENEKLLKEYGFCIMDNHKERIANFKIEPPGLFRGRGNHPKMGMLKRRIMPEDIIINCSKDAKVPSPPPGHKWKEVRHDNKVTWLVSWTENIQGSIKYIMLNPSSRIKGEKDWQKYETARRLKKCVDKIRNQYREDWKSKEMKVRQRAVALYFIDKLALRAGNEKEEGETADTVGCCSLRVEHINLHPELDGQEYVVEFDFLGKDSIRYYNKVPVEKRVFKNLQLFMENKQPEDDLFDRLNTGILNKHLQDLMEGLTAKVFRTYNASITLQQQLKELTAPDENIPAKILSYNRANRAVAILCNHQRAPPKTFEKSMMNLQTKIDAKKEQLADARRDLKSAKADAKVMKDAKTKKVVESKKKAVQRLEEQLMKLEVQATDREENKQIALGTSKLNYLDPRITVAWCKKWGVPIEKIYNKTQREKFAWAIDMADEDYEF
Test: Inhibitory activity against DNA topoisomerase-1 obtained from Hela cells
Type: cell-based

`CCCCCCCCCCCCCCCC(=O)O[C@H](CC=C(C)C)C1=CC(=O)c2c(O)ccc(O)c2C1=O` and `CCCCCCCCCCCCCCCCCC(=O)O[C@H](CC=C(C)C)C1=CC(=O)c2c(O)ccc(O)c2C1=O` cannot be ordered by IC50: over 625 µM for the first, over 625 µM for the second.

`CC(C)=CC[C@@H](OC(=O)/C=C(C)/C=C/C=C(C)/C=C/C1=C(C)CCCC1(C)C)C1=CC(=O)c2c(O)ccc(O)c2C1=O` and `CC(C)=CC[C@@H](OC(=O)\C=C(C)/C=C/C=C(C)/C=C/C1=C(C)CCCC1(C)C)C1=CC(=O)c2c(O)ccc(O)c2C1=O` cannot be ordered by IC50: over 625 µM for the first, over 625 µM for the second.

First: CC(C)=CC[C@@H](OC(=O)C(Cl)(Cl)Cl)C1=CC(=O)c2c(O)ccc(O)c2C1=O
Second: CC(=O)O[C@H](CC=C(C)C)C1=CC(=O)c2c(O)ccc(O)c2C1=O [ACETYLSHIKONIN]
The IC50 of the first is 2.6-fold higher: 115 µM for the first, 45 µM for the second.

Going from `C=CCCCCC(=O)O[C@H](CC=C(C)C)C1=CC(=O)c2c(O)ccc(O)c2C1=O` to `C=CCCC(=O)O[C@H](CC=C(C)C)C1=CC(=O)c2c(O)ccc(O)c2C1=O`, the IC50 falls from 250 µM to 40 µM (6.2-fold). The second is the more potent here.

Compared with `CC(C)=CC[C@@H](O)C1=CC(=O)c2c(O)ccc(O)c2C1=O` [SHIKONIN], `CC(C)=CC[C@@H](OC(=O)CCl)C1=CC(=O)c2c(O)ccc(O)c2C1=O` is 1.5-fold lower in IC50: 208 µM for the first, 137 µM for the second.

`CCCCC/C=C/C/C=C/CCCCCCCC(=O)O[C@H](CC=C(C)C)C1=CC(=O)c2c(O)ccc(O)c2C1=O` and `CCCCCCCC/C=C/CCCCCCCC(=O)O[C@H](CC=C(C)C)C1=CC(=O)c2c(O)ccc(O)c2C1=O` cannot be ordered by IC50: over 625 µM for the first, over 625 µM for the second.

`CCCCCCCCCCCC(=O)O[C@H](CC=C(C)C)C1=CC(=O)c2c(O)ccc(O)c2C1=O` and `CCCCCCCCCC(=O)O[C@H](CC=C(C)C)C1=CC(=O)c2c(O)ccc(O)c2C1=O` cannot be ordered by IC50: over 625 µM for the first, over 625 µM for the second.

`C=CCC/C=C/C(=O)O[C@H](CC=C(C)C)C1=CC(=O)c2c(O)ccc(O)c2C1=O` and `CCC/C=C/C(=O)O[C@H](CC=C(C)C)C1=CC(=O)c2c(O)ccc(O)c2C1=O` are within 1.5-fold of each other in IC50: 126 µM for the first, 153 µM for the second.

`CC(C)=CC[C@@H](OC(=O)C=C(C)C)C1=CC(=O)c2c(O)ccc(O)c2C1=O` [DIMETHYLACRYLSHIKONIN] and `CC/C=C/C(=O)O[C@H](CC=C(C)C)C1=CC(=O)c2c(O)ccc(O)c2C1=O` are within 1.5-fold of each other in IC50: 77 µM for the first, 80 µM for the second.

First: CCCCCCC(=O)O[C@H](CC=C(C)C)C1=CC(=O)c2c(O)ccc(O)c2C1=O
Second: CCCCCCCC(=O)O[C@H](CC=C(C)C)C1=CC(=O)c2c(O)ccc(O)c2C1=O
The IC50 of the first is lower: 625 µM for the first, over 625 µM for the second.

`CCCCCC(=O)O[C@H](CC=C(C)C)C1=CC(=O)c2c(O)ccc(O)c2C1=O` and `CCCCC(=O)O[C@H](CC=C(C)C)C1=CC(=O)c2c(O)ccc(O)c2C1=O` are within 1.5-fold of each other in IC50: 207 µM for the first, 161 µM for the second.

Compared with `CCCC(=O)O[C@H](CC=C(C)C)C1=CC(=O)c2c(O)ccc(O)c2C1=O`, `CCC(=O)O[C@H](CC=C(C)C)C1=CC(=O)c2c(O)ccc(O)c2C1=O` is 3.3-fold lower in IC50: 144 µM for the first, 44 µM for the second. The second is the more potent here.

`CCCCCCCCC(=O)O[C@H](CC=C(C)C)C1=CC(=O)c2c(O)ccc(O)c2C1=O` and `CCCCC/C=C/C/C=C/C/C=C/CCCCC(=O)O[C@H](CC=C(C)C)C1=CC(=O)c2c(O)ccc(O)c2C1=O` cannot be ordered by IC50: over 625 µM for the first, over 625 µM for the second.

`CC(C)=CC[C@@H](OC(=O)Cc1ccccc1)C1=CC(=O)c2c(O)ccc(O)c2C1=O` and `CC(C)=CC[C@@H](OC(=O)c1ccccc1)C1=CC(=O)c2c(O)ccc(O)c2C1=O` are within 1.5-fold of each other in IC50: 222 µM for the first, 153 µM for the second.

Compared with `CC(C)=CC[C@@H](OC(=O)C(c1ccccc1)c1ccccc1)C1=CC(=O)c2c(O)ccc(O)c2C1=O`, `CC(C)=CC[C@@H](OC(=O)C(C)C)C1=CC(=O)c2c(O)ccc(O)c2C1=O` [ISOBUTYLSHIKONIN] is lower in IC50: over 625 µM for the first, 84 µM for the second. The second is the more potent here.

`CC/C=C/CC(=O)O[C@H](CC=C(C)C)C1=CC(=O)c2c(O)ccc(O)c2C1=O` and `C/C=C/C=C/C(=O)O[C@H](CC=C(C)C)C1=CC(=O)c2c(O)ccc(O)c2C1=O` are within 1.5-fold of each other in IC50: 153 µM for the first, 130 µM for the second.

— ChEMBL document CHEMBL1128571, “Acylshikonin analogues: synthesis and inhibition of DNA topoisomerase-I” (J Med Chem, 1995)
